# Experimental data from PMC11640836, “Aminomethylmorpholino Nucleosides as Novel Inhibitors of PARP1 and PARP2: Experimental and Molecular Modeling Analyses of Their Selectivity and Mechanism of Action” (International Journal of Molecular Sciences, 2024).
# Like-named read-outs stand apart in the source and are kept apart here.
# Key:
# [1] = target: T1, PARP2 (Mus musculus, UniProt O88554); assay: PARP2 autopoly(ADP-ribosyl)ation (autoPARylation) enzyme assay with [32P]NAD+; format: biochemical, murine; conditions: for remaining activity at 1000 µM: 5 min, 1 mM compound, autoPARylation reaction, read-out: Residual catalytic activity of PARP2 in the presence of a 1 mM compound
# T1 construct: made in house; host or cells: insect cells
# T1 sequence (O88554 whole entry): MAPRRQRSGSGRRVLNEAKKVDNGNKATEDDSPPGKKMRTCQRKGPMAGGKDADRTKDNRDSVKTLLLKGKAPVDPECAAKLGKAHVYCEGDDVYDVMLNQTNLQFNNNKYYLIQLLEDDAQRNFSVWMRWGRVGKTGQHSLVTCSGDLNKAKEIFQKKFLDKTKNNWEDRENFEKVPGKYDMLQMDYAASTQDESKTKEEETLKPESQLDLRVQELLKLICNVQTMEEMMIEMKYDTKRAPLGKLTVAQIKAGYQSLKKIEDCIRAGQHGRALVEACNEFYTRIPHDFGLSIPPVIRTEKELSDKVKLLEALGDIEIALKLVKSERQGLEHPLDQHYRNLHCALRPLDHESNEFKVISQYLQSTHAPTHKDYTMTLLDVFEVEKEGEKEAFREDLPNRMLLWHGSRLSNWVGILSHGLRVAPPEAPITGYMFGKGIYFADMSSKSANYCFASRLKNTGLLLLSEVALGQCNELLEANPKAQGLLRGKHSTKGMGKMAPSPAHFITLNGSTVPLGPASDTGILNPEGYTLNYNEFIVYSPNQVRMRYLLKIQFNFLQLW
# Protocol: (§1) Human recombinant poly(ADP-ribose) polymerase 1 (PARP1) and murine poly(ADP-ribose) polymerase 2 (PARP2) were expressed in insect cells and purified as previously described. Radioactively labeled [^32P]NAD^+ was synthesized from [α-^32P]ATP, according to the previously developed method. The reaction of autopoly(ADP-ribosyl)ation was performed as follows. For PARP1, the reaction mixture contained 50 mM of Tris-HCl, a pH of 8.0, 10 mM of MgCl2, 150 mM of NaCl, 7 mM of β-mercaptoethanol, 2 A260/mL of activated DNA, 0.3 mM of [^32P]NAD^+, and 1 of the tested compounds. The reaction was initiated by adding PARP1 up to 200 nM, and the reaction mixtures were incubated at 37 °C for 2 min. For PARP2, the reaction mixture contained 50 mM of Tris-HCl, a pH of 8.0, 3 mM of spermine, 150 mM of NaCl, 7 mM of β-mercaptoethanol, 2 A260/mL of activated DNA, 0.6 mM of [^32P]NAD^+, and 1 of the tested compounds. The reaction was initiated by adding PARP2 up to 800 nM, and the reaction mixtures were incubated at 37 °C for 5 min. The tested compounds were added at six fixed concentrations, specified for each of them. The reaction was stopped by dropping 10 µL aliquots onto Whatman 1 filter papers soaked in 5% trichloroacetic acid (TCA). The filters were washed 4 times with 150 mL of 5% TCA and dried in the air after the removal of TCA with 90% ethanol. The introduction of radioactivity into the reaction product was quantified using a Typhoon FLA 9500 imager (GE Healthcare, Chicago, IL, USA). The half-maximal inhibitory concentration (IC50) values were determined using a six-point concentration response curve in three independent experiments.
# [2] = target: T2, PARP1 (Homo sapiens, UniProt P09874); assay: PARP1 autopoly(ADP-ribosyl)ation (autoPARylation) enzyme assay with [32P]NAD+; format: biochemical; conditions: for IC50: 0.3 mM [32P]NAD+, means ±SDs of three independent experiments, read-out: IC50, PARP1 activity in the autoPARylation reaction
# T2 construct: made in house; host or cells: insect cells
# T2 sequence (P09874 whole entry): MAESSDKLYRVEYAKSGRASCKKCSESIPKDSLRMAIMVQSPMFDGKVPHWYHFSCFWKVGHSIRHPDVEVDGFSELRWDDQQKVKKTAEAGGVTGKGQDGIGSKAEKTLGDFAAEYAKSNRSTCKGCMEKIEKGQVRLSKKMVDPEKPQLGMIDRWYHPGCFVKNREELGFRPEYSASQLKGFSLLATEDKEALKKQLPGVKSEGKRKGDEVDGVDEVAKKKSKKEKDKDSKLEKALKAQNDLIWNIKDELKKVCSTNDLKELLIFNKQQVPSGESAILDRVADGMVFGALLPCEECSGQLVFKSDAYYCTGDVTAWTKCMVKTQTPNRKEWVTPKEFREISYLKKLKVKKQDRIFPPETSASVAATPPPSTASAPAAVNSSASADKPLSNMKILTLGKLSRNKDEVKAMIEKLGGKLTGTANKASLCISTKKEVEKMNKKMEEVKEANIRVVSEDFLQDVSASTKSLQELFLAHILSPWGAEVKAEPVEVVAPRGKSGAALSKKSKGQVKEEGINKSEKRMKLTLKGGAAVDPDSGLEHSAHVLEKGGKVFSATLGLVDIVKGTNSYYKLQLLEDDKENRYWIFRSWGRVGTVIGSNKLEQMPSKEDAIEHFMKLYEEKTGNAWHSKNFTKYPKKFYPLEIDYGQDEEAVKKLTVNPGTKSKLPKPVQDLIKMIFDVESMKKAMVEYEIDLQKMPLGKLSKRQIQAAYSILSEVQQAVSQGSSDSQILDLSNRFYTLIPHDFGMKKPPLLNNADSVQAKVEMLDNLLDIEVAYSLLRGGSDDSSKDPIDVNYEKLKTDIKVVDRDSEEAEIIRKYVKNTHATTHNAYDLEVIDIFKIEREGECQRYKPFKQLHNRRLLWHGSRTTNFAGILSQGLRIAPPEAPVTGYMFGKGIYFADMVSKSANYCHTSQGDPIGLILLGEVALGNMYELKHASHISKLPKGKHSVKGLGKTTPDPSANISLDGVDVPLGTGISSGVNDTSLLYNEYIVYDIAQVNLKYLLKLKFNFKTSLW
# Protocol: as §1
# [3] = system: HeLa cell line (cervical cancer); assay: Cell culture cytotoxicity assay (EZ4U/MTT), compounds alone and combined with hydrogen peroxide; conditions: for Effect (H2O2 + PARP inhibitor combo): Hela
# [4] = target: T2, PARP1; assay: Steady-state kinetic analysis of the PARP1 enzymatic reaction; format: biochemical; conditions: for Type of inhibition: Vmax decreased, KM increased
# Protocol: The four efficient inhibitors of PARP1 (compounds 8, 12, 13, and 14) were further examined by detailed kinetic experiments to determine the type of inhibition and the inhibition constants. […] The kinetics experiments of the PARylation reaction were performed at varied concentrations of the NAD^+ substrate and three–four different fixed concentrations of the inhibitor. The kinetic parameters of the reaction (Vmax and KM) were calculated by fitting the Michaelis–Menten equation to the kinetic data. The type of inhibition was determined by analyzing the dependences of Vmax and KM on the concentration of the inhibitor in linearizing coordinates (Figure S3). All the compounds had decreased Vmax and increased KM values as the inhibitor concentration increased (panels A−E), indicating a mixed type of inhibition, which was further evidenced by the double reciprocal plots of kinetic data (panel F). From these experiments, the inhibition constants reflecting the affinity of inhibitors to the NAD^+ binding pocket of free enzymes were determined (Table 2).
# To determine the apparent maximum rate of enzymatic reaction (Vmax), Michaelis constant (KM), and possible inhibition mechanism, steady-state kinetic experiments were performed at […] fixed concentrations of the substrate, in the absence and presence of different fixed concentrations of the inhibitor. The standard reaction mixtures (10 μL) contained 100 μM, 300 μM, 500 μM, 1 mM, or 2 mM NAD^+; a tested PARP1/PARP2 inhibitor specified for each compound (Figure S3); the recombinant human enzyme PARP1 (200 nM) or murine PARP2 (800 nM); and reaction buffer components (specified in the previous subsection). The reaction was performed as described in the previous subsection. The raw data (kinetic curves) were obtained in three independent experiments and statistically processed with OriginPro 8.6.0 software. […]
# F) Graphical representation in double reciprocal plots. The inhibitor concentrations (µM) are indicated right to each panel.
# Figure S3. Graphical representation of inhibition type determination for PARP1 and PARP2 with selected compounds.
# The Ki and Ki(2) values presented in Table 2 in the main text and Table S1 were calculated using the equations:
# Ki = Ci⁄ Ki (2) = CiV Vmax ∗ൗ−1
# ቂ(Vmax Km )൘ቃ(Vmax ∗ Km ∗)⁄ −1 where Vmax (Vmax*) – maximal reaction velocity in th e absence (presence) of inhibitor; Km (Km*) – Michaelis constant in the absence (presence) of inhibitor; Ci – the inhibitor concentration.
# (also on this page, place not known: Ci )⁄ (Vmax ∗ )⁄൘ቃ − Ki(2) Ci V ∗ൗ− 1 the Vmax KM 3000 0 1 0 250 [ 32 P]ADP-ribose, counts x 10 -3 NAD + ,)
# (1 picture or pasted object on this page, not shown here)
# [5] = target: T3, PARP2 (supplemented with HPF1 or not) (Mus musculus, UniProt O88554); assay: PARP2 inhibition in the absence and presence of HPF1 (automodification, SDS-PAGE); format: biochemical, murine; conditions: 500 nM PARP2, 1 µM HPF1
# T3 construct: made in house; host or cells: insect cells (PARP2)
# T3 sequence (O88554 whole entry): as the sequence (O88554 whole entry) above
# Protocol: PARP1/PARP2 autopoly(ADP-ribosyl)ation was performed in a standard 20 μL reaction mixture containing 50 mM of Tris-HCl, a pH of 8.0, 100 mM of NaCl, 10 mM of MgCl2, 1 mM of DTT, 10 µM of [^32P]NAD^+, 1 µM of gap-DNA (a 32-mer duplex with a medially located 1-nucleotide gap), 500 nM of PARP1/PARP2 (supplemented with 1 µM of HPF1 or not), and an inhibitor of interest at concentrations specified in Figure 4 and Figure S7. The reaction was initiated by adding a mixture of [^32P]NAD^+ and DNA to a protein-inhibitor mixture pre-assembled on ice. After incubating the mixtures at 37 °C for the indicated time periods, the reactions were terminated by the addition of an SDS-PAGE sample buffer and heating for 2 min at 90 °C. The reaction products were analyzed using 10% SDS-PAGE with the subsequent phosphor imaging of a Coomassie brilliant blue stained gel. Protein bands labeled with [^32P]ADP-ribose were quantified using Quantity One 4.6.7 Basic software. The residual activity (%) was determined as the level of PARP automodification in the presence of an inhibitor normalized to the respective level in the control sample containing no inhibitor.
# [6] = system: PARP2; conditions: cited from earlier work
# [7] = system: PARP1; conditions: cited from earlier work
# [8] = system: PARP2; assay: fluorescence anisotropy; conditions: 800 nM olaparib; 50 mM NaCl, 50 mM Tris-HCl pH 8.0, 4 mM DTT; 25 nM FAM-DNA, 20-200 nM PARP1 or 20-800 nM PARP2; mixed on ice, 10 min at room temperature
# [9] = system: PARP1; assay: fluorescence anisotropy; conditions: 400 nM olaparib; 50 mM NaCl, 50 mM Tris-HCl pH 8.0, 4 mM DTT; 25 nM FAM-DNA, 20-200 nM PARP1 or 20-800 nM PARP2; mixed on ice, 10 min at room temperature
# [10] = mixed-type inhibition, read-out: Ki (affinity for the free enzyme)
# [11] = read-out: Ki(2) (affinity for the enzyme complex with NAD+ substrate)
compound,measurement,setting,value
NC[C@@H]1CNC[C@H](n2cnc3c(=O)[nH]c(N)nc32)O1 [Compound 9],remaining activity at 1000 µM,[1],> 30%
same,Residual catalytic activity of PARP1 in the presence of a 1 mM compound,[2]; autoPARylation reaction,>30%
NC[C@@H]1CNC[C@H](n2ccc(N)nc2=O)O1 [Compound 10],remaining activity at 1000 µM,[1],> 30%
same,Residual catalytic activity of PARP1 in the presence of a 1 mM compound,[2]; autoPARylation reaction,>30%
same,Effect (H2O2 + PARP inhibitor combo),[3]; H2O2 30 μM + inhibitor 100 μM,0.29
same,Effect (H2O2 + PARP inhibitor combo),[3]; H2O2 30 μM + inhibitor 800 μM,0.23
same,Effect (H2O2 + PARP inhibitor combo),[3]; H2O2 50 μM + inhibitor 100 μM,0.32
same,Effect (H2O2 + PARP inhibitor combo),[3]; H2O2 50 μM + inhibitor 800 μM,0.26
same,Effect (H2O2 + PARP inhibitor combo),[3]; H2O2 90 μM + inhibitor 100 μM,0.45
same,Effect (H2O2 + PARP inhibitor combo),[3]; H2O2 90 μM + inhibitor 800 μM,0.51
same,Effect (H2O2 + PARP inhibitor combo),[3]; H2O2 150 μM + inhibitor 100 μM,0.66
same,Effect (H2O2 + PARP inhibitor combo),[3]; H2O2 150 μM + inhibitor 800 μM,0.64
same,Effect (H2O2 + PARP inhibitor combo),[3]; H2O2 250 μM + inhibitor 100 μM,0.78
same,Effect (H2O2 + PARP inhibitor combo),[3]; H2O2 250 μM + inhibitor 800 μM,0.87
NC[C@@H]1CNC[C@H](n2ccc(=O)[nH]c2=O)O1 [Compound 11],remaining activity at 1000 µM,[1],> 30%
same,IC50,[2],420 ± 66 µM
"NC[C@@H]1CNC[C@H](n2cc(Cl)c(=O)[nH]c2=O)O1 [Compound 12, aminomethylmorpholino 5-Cl-uracil nucleoside]",remaining activity at 1000 µM,[1],> 30%
same,Type of inhibition,[4],mixed-type inhibition
same,Ki,[4]; [10],79 ± 6 µM
same,Ki,[4]; [11],300 ± 60 µM
same,IC50,[2],45 ± 5 µM
same,Selectivity for PARP1 over PARP2 (IC50 comparison),[2]; autoPARylation reaction,highly selective PARP1 inhibitor
NC[C@@H]1CNC[C@H](n2cc(Br)c(=O)[nH]c2=O)O1 [Compound 13],IC50,"[1]; 0.6 mM [32P]NAD+, means ±SDs of three independent experiments, read-out: IC50, PARP2 activity in the autoPARylation reaction",250 ± 37 µM
same,Type of inhibition,[4],mixed-type inhibition
same,Ki,[4]; [10],25 ± 4 µM
same,Ki,[4]; [11],130 ± 30 µM
same,IC50,[2],30 ± 3 µM
same,Impact of HPF1 on the inhibition potency against PARP2,[5],no impact of HPF1
"O=C(c1cc(Cc2n[nH]c(=O)c3ccccc23)ccc1F)N1CCN(C(=O)C2CC2)CC1 [olaparib, reference compound]",IC50,[6],[…]
same,Effect (H2O2 + PARP inhibitor combo),[3]; H2O2 30 μM + inhibitor 30 μM,0.32
same,Effect (H2O2 + PARP inhibitor combo),[3]; H2O2 30 μM + inhibitor 50 μM,0.42
same,Effect (H2O2 + PARP inhibitor combo),[3]; H2O2 50 μM + inhibitor 30 μM,0.51
same,Effect (H2O2 + PARP inhibitor combo),[3]; H2O2 50 μM + inhibitor 50 μM,0.5
same,Effect (H2O2 + PARP inhibitor combo),[3]; H2O2 90 μM + inhibitor 30 μM,0.6
same,Effect (H2O2 + PARP inhibitor combo),[3]; H2O2 90 μM + inhibitor 50 μM,0.7
same,Effect (H2O2 + PARP inhibitor combo),[3]; H2O2 150 μM + inhibitor 30 μM,0.85
same,Effect (H2O2 + PARP inhibitor combo),[3]; H2O2 150 μM + inhibitor 50 μM,0.9
same,Effect (H2O2 + PARP inhibitor combo),[3]; H2O2 250 μM + inhibitor 30 μM,0.96
same,Effect (H2O2 + PARP inhibitor combo),[3]; H2O2 250 μM + inhibitor 50 μM,0.98
same,Effect on the cytotoxicity of hydrogen peroxide,"[3]; Hela cells, MTT test, H2O2 30 to 250 μM",enhanced the cytotoxic effects of hydrogen peroxide
Cc1cn([C@@H]2O[C@H](CO)[C@@H](O)[C@H]2O)c(=O)[nH]c1=O [rThd],IC50,[7],277 µM
same,IC50,[6],374 µM
"FAM gap-DNA (32-mer duplex, 1-nt gap)",binding signal (fold increase of EC50 vs no inhibitor),[8],1.6
same,binding signal (fold increase of EC50 vs no inhibitor),[9],1.8
